Values of other authors in article PMC6714113 (Research in Pharmaceutical Sciences, 2019).

Details: read-out: IC50 (cytotoxicity)

In the case of `N[C@@H](Cc1ccc(B(O)O)cc1)C(=O)O` [BPA, boronophenylalanine], the IC50 is given as over 4 mM.
